This is an account of results in article PMC6220272, “Scaffold-Hopping from Synthetic Drugs by Holistic Molecular Representation” (Scientific Reports, 2018).

The target of one experiment is T1, vitamin D receptor [VDR] (Homo sapiens, UniProt P11473).
T1 construct: expressed in transfected cells; host or cells: HEK293T
T1 sequence (P11473 127-423 limits assumed): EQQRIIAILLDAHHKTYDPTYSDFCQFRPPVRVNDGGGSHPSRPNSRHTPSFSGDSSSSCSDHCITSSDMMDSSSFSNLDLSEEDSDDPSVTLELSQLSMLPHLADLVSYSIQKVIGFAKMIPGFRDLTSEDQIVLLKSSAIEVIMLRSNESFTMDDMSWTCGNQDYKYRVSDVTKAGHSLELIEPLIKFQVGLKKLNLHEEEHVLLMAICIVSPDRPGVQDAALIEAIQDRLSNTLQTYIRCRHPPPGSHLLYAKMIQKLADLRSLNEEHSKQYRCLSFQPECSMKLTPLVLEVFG
The experiment can be described thus: Gal4 hybrid reporter gene assay VDR (selectivity profiling). The experiment is classed as cell-based. The method, then: (§1) Moreover, 7 was characterized for its ability to modulate RXR target gene expression under more physiological conditions. Hepatoma cells (HepG2) were incubated with 7 (30 µM) or reference RXR agonist bexarotene (9, 1 µM) for eight hours and mRNA expression of RXR regulated genes ATP-binding cassette transporter A1 (ABCA1), angiopoietin like protein 4 (ANGPTL4) and apolipoprotein E (ApoE) was analysed by quantitative real-time PCR.
(§2) The Gal4 hybrid reporter gene assays were conducted as reported previously[39]–[41]. pFA-CMV-based constructs comprising the ligand binding domain of the human nuclear receptor in question were used as expression plasmids for the chimera receptors. pFR-Luc (Stratagene) served as reporter plasmid and pRL-SV40 (Promega) for normalization of transfection efficiency and cell growth. The assays were conducted in 96-well format in HEK293T cells that were cultured as described previously[39]–[41]. Transient transfection was carried out using Lipofectamine LTX reagent (Invitrogen) according to the manufacturer’s protocol. After transfection and incubation with test compounds (12–14 h), cells were assayed for luciferase activity using Dual-Glo™ Luciferase Assay System (Promega) according to the manufacturer’s protocol. Luminescence was measured with an Infinite M200 luminometer (Tecan Deutschland GmbH). […]
(In general: In a reporter assay the amount or activity of a reporter protein is the signal.)

Experiment [1] deals with T2, constitutive androstane receptor [CAR] (Homo sapiens, UniProt Q14994).
T2 construct: expressed in transfected cells; host or cells: HEK293T
T2 sequence (Q14994 109-352 limits assumed): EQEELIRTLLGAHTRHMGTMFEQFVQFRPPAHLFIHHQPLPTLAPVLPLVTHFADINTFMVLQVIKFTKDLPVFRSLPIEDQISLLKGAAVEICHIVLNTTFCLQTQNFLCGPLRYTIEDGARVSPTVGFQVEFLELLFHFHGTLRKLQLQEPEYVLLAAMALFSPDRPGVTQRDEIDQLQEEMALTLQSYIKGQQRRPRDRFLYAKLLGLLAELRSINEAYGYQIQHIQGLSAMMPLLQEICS
The experiment can be described thus: Gal4 hybrid reporter gene assay CAR (selectivity profiling). The experiment is classed as cell-based. On the procedure: as §1, §2

Turning to `CC(C)(C)c1cc(/C=N/NC(=O)c2ccc(N)cc2)cc(C(C)(C)C)c1` [Compound 7], on vitamin D receptor [VDR], the “activity on VDR” value is “no activity”. Further, the “activity on CAR” value in experiment [1] is listed as “no activity”.
